Results on 2 compounds are retold here after patent US9422267B2, “Fused pyrimidine compounds and use thereof” (Medivation Technologies, Inc., priority 2012, dated 2016).

Structures are written as SMILES.

The subject of data set [1] is over 50 of the panel of 72 non-kinase targets (Table B14). Kind of data set: Extended panel screen against non-kinase targets (LeadProfilingScreen and CYP450 assays). Type of data set: binding. Particulars: read-out: percent inhibition for over 50 of the non-kinase targets tested. The procedure: (§1) Compound no. The experiments were performed by Ricerca Biosciences (Painesville, Ohio) using the LeadProfilingScreen and CYP450 assays. Compound no. 8b was screened at a concentration of 1 μM. No significant hits were identified.

The subject of data set [2] is panel of 72 non-kinase targets (Table B14), incl. CYP450. Described as above. Conditions: 72 non-kinase targets, read-out: percent inhibition of all non-kinase targets. Format: binding. The procedure: as §1
The subject of a further data set is ASPC-1. Kind of data set: Cell viability: pancreatic cancer cell line ASPC-1. Format: cell-based. Particulars: Homo sapiens, ASPC1; ASPC-1 pancreatic cancer cell line. As to the method:
This assay quantitates the ATP present in order to determine the number of viable cells in culture. Briefly, the compounds were incubated with the cells for 72 h, followed by cell lysis. The resulting luminescent signal is proportional to the amount of ATP present and, therefore, directly proportional to the number of cells present in culture.
Analogous studies utilizing pancreatic cancer cell lines such as ASPC-1 and PANC-1 can be performed with compounds of the invention.

Another data set has as its target T1, ALK (Homo sapiens, UniProt Q9UM73).
T1 construct: purchased Caliper LifeSciences (ProfilerPro Kinase Selectivity Assay Kits)
Kind of data set: Caliper kinase profiling: ALK. Type of data set: biochemical.

A further data set concerns the target T2, BLK (Homo sapiens, UniProt P51451).
T2 construct: purchased Caliper LifeSciences (ProfilerPro Kinase Selectivity Assay Kits)
Kind of data set: Caliper kinase profiling: BLK. Type of data set: biochemical.

Another data set deals with DCAMKL1 (Homo sapiens, UniProt O15075). Kind of data set: Caliper kinase profiling: DCAMKL1. Format: biochemical. Particulars: DCAMKL1, 1 μM; read-out: Average % Inh @ 1 μM.
The target in the next data set is DDR2 (Homo sapiens, UniProt Q16832). Kind of data set: Caliper kinase profiling: DDR2. Format: biochemical. Conditions: DDR2, 1 μM; read-out: Average % Inh @ 1 μM.
The next data set deals with EPHA3 (Homo sapiens, UniProt P29320). Kind of data set: Caliper kinase profiling: EPHA3. Type of data set: biochemical. Conditions: EPHA3, 1 μM; read-out: Average % Inh @ 1 μM.
In the next data set the target is EPHB1 (Homo sapiens, UniProt P54762). Kind of data set: Caliper kinase profiling: EPHB1. Format: biochemical. Conditions: EPHB1, 1 μM; read-out: Average % Inh @ 1 μM.
The target of another data set is EPHB2 (Homo sapiens, UniProt P29323). Kind of data set: Caliper kinase profiling: EPHB2. Format: biochemical. Conditions: EPHB2, 1 μM; read-out: Average % Inh @ 1 μM.
The target in the next data set is FGFR1 (Homo sapiens, UniProt P11362). Kind of data set: Caliper kinase profiling: FGFR1. Type of data set: biochemical.
Another data set has as its target FLT3 (Homo sapiens, UniProt P36888). Kind of data set: Caliper kinase profiling: FLT3. Conditions: FLT3, 1 μM; read-out: Average % Inh @ 1 μM. Type of data set: biochemical.
The next data set concerns the target Flt3(D835Y) (Homo sapiens, UniProt P36888, D835Y). Kind of data set: Caliper kinase profiling: Flt3(D835Y). Type of data set: biochemical. Conditions: read-out: Average % Inh @ 1 μM.
For a further data set, the target named is JAK2 (Homo sapiens, UniProt O60674). Kind of data set: Caliper kinase profiling: JAK2. Type of data set: biochemical. Particulars: JAK2, 1 μM; read-out: Average % Inh @ 1 μM.
For another data set, the target named is T3, TYRO3 (Homo sapiens, UniProt Q06418).
T3 sequence (Q06418 41-890): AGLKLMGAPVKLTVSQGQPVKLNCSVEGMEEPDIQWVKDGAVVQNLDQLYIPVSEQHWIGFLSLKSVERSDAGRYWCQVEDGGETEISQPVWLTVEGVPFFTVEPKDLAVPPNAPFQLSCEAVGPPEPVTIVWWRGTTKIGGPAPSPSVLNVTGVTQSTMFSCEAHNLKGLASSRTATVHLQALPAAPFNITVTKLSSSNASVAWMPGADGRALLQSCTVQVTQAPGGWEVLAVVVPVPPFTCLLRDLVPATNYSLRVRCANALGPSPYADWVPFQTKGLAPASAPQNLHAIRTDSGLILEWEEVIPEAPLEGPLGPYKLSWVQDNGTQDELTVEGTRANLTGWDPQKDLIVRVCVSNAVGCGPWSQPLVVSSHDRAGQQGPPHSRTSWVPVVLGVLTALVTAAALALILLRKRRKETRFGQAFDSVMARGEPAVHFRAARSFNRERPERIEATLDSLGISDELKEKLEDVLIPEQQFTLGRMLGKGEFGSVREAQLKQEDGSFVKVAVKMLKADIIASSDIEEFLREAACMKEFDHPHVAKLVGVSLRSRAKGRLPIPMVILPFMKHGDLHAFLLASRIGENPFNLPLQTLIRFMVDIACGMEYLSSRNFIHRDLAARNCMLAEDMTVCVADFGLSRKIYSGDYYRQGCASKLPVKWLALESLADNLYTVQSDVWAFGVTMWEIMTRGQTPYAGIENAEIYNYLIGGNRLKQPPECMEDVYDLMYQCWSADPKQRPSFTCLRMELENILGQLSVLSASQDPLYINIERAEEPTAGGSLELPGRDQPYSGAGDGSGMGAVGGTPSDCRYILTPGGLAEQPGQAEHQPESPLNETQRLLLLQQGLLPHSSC
Kind of data set: Caliper kinase profiling: TYRO3. Type of data set: biochemical.

Setting [3] is: 10 nM, read-out: Average % Inh @ 10 nM.
Where [4] appears, read: 100 nM, read-out: Average % Inh @ 100 nM.
The mark [5] stands for this setting: 1 μM, read-out: Average % Inh @ 1 μM.

As usually defined, the IC50 is the point on the concentration scale where inhibition reaches its midpoint.

T1 sequence (Q9UM73 19-1620): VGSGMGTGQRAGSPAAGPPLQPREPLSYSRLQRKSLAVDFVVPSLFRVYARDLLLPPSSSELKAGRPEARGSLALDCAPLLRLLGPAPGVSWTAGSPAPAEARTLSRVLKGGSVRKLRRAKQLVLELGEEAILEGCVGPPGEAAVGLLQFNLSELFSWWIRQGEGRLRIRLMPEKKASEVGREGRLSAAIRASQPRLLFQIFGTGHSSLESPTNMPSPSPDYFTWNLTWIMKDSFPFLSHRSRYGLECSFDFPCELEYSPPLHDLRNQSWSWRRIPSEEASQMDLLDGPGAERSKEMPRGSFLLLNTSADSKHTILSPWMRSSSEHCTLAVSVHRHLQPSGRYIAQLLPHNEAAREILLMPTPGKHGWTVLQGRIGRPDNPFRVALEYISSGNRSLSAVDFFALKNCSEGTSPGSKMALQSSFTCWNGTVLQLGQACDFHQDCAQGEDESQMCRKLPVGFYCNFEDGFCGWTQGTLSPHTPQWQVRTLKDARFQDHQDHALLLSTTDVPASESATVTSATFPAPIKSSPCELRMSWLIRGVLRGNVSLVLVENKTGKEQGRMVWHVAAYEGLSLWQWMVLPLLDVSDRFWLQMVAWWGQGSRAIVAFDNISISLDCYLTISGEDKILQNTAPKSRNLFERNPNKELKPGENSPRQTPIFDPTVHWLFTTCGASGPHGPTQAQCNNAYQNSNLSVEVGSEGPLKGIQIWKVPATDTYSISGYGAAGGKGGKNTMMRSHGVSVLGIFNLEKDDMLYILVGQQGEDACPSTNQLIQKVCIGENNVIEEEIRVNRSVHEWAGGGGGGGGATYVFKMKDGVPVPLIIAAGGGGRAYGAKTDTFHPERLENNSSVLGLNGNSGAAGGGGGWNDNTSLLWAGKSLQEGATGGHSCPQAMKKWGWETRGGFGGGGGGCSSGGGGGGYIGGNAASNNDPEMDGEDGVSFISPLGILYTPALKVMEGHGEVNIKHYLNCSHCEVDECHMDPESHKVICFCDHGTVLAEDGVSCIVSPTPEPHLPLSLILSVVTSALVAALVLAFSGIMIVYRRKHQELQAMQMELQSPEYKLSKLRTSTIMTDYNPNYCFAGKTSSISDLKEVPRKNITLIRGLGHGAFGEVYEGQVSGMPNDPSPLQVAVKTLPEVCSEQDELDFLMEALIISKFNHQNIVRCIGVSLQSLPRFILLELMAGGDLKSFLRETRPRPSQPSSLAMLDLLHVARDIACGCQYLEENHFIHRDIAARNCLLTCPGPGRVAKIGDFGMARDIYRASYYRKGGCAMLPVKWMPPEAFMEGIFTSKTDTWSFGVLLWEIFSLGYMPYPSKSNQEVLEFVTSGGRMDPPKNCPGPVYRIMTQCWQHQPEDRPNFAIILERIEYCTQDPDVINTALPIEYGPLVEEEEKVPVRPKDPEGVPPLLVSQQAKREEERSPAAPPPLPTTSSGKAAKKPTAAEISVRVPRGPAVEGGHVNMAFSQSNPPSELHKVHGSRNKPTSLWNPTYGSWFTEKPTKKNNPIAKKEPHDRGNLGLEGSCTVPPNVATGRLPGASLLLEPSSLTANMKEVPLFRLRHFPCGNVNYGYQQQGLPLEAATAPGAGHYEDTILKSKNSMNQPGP
T2 sequence (P51451 whole entry): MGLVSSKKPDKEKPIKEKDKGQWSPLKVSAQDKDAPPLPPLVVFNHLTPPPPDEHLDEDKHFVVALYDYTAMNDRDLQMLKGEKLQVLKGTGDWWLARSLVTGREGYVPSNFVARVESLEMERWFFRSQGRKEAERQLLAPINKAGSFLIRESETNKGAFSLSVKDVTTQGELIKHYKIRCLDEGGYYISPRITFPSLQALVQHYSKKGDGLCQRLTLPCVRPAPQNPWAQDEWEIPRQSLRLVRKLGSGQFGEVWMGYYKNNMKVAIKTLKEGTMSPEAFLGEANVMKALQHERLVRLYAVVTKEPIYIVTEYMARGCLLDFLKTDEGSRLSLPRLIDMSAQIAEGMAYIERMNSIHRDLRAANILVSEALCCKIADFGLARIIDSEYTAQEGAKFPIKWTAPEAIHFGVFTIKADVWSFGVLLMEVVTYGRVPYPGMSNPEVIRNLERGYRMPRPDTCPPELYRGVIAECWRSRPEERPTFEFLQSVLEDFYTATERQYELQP
FGFR1, sequence (P11362 22-822): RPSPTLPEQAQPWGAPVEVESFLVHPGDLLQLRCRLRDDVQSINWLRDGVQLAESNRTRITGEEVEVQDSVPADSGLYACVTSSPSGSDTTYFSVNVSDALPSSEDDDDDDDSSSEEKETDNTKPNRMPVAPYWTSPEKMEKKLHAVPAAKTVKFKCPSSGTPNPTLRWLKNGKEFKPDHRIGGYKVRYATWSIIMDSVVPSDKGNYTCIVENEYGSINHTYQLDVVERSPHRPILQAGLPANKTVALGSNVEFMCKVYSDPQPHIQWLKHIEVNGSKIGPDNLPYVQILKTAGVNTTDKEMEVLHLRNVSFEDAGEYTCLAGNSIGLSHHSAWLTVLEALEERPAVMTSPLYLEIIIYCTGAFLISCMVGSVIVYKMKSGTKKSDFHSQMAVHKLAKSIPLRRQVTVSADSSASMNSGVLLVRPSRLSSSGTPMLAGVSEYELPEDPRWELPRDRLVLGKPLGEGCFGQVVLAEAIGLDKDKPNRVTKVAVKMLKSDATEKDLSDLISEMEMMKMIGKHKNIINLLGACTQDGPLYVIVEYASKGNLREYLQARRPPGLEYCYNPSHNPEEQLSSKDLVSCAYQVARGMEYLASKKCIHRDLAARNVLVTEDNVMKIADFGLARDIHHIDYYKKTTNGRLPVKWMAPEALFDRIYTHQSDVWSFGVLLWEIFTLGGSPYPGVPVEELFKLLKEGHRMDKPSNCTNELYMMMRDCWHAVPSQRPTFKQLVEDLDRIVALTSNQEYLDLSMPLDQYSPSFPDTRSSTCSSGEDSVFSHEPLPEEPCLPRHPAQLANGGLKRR
JAK2, sequence (O60674 whole entry): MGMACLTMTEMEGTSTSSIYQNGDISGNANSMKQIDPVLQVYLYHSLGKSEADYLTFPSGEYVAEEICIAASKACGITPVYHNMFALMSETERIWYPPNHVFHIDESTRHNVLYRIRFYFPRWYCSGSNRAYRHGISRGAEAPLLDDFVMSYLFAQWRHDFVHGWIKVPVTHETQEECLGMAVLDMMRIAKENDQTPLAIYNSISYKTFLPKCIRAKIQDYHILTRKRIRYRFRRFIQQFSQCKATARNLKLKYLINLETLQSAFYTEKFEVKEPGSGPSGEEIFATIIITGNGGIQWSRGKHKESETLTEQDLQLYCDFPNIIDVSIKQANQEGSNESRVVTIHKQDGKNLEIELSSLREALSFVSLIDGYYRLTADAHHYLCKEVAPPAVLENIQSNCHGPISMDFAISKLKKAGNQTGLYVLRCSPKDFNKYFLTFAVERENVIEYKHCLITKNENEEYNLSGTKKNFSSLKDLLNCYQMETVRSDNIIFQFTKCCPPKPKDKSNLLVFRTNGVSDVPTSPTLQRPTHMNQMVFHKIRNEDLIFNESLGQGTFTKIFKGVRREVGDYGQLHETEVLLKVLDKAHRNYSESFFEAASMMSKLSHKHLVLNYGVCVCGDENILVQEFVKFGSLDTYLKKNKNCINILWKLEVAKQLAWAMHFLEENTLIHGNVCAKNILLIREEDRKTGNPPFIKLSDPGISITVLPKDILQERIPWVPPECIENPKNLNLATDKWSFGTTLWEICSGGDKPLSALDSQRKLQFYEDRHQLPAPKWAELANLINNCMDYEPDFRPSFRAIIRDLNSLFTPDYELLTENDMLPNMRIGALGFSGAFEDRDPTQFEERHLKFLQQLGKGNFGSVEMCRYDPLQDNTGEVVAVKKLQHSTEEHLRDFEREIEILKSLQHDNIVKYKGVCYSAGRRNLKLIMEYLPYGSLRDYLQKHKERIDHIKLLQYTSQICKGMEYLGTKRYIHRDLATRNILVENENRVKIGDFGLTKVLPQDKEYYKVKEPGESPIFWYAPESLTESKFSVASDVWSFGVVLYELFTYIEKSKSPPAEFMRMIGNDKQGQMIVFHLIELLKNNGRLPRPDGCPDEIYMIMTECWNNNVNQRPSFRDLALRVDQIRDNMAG
DCAMKL1, sequence (O15075 whole entry): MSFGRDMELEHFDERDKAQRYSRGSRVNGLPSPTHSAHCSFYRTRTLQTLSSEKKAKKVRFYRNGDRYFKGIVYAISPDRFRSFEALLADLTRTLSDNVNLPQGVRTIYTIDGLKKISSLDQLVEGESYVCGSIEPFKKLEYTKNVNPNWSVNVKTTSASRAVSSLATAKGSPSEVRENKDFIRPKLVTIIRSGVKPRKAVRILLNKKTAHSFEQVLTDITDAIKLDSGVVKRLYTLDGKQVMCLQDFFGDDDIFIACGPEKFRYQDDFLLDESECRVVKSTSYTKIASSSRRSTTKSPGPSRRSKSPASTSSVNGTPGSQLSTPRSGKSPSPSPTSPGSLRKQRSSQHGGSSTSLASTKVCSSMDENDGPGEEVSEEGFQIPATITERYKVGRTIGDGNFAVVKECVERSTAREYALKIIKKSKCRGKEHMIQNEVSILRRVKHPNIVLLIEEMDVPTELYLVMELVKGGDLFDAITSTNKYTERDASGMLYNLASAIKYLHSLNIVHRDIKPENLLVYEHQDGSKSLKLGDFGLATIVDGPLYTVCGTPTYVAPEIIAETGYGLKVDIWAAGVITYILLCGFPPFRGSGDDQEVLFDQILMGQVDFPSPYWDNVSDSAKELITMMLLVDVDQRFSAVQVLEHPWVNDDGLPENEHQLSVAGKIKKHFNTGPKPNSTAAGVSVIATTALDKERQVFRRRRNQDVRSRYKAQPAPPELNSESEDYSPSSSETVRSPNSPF

With `CC(C)c1cc(Nc2nc(N3CCCC3C(=O)Nc3ccc(F)nc3)nc3c2CCC3)n[nH]1` (single isomer, unassigned) [Compound 8b], the inhibition at 1 µM is less than 10% in data set [1] and less than 30% in [2]. This compound displayed an IC50 in the data set with ASPC-1 of 195 nM.
Take `O=C(Nc1ccc(F)nc1)C1CCCN1c1nc2c(c(Nc3cc(C4CC4)[nH]n3)n1)CCC2` (single isomer, unassigned) [Compound 2b, 1-(4-(5-cyclopropyl-1H-pyrazol-3-ylamino)-6,7-dihydro-5H-cyclopenta[d]pyrimidin-2-yl)-N-(6-fluoropyridin-3-yl)pyrrolidine-2-carboxamide]: the inhibition at 0.01 µM on ALK (setting [3]) is less than 39%; at BLK (setting [3]), less than 39%; at FGFR1 (FGFR1, 10 nM, read-out: Average % Inh @ 10 nM), less than 39%; on TYRO3 (TYRO3, 10 nM, read-out: Average % Inh @ 10 nM), less than 39%. Besides, the inhibition at 0.1 µM on ALK (setting [4]) is less than 39%; on BLK (setting [4]) it was less than 39%; at FGFR1 (FGFR1, 100 nM, read-out: Average % Inh @ 100 nM) it was less than 39%; at TYRO3 (TYRO3, 100 nM, read-out: Average % Inh @ 100 nM), less than 39%. The inhibition at 1 µM on ALK (setting [5]) is greater than 60%; at BLK (setting [5]), greater than 60%; on DCAMKL1 it was 40 to 59%; at DDR2, greater than 60%; on EPHA3, 40 to 59%; on EPHB1, greater than 60%. Further, the inhibition at 1 µM was greater than 60% on EPHB2; greater than 60% on FGFR1 (FGFR1, 1 μM, read-out: Average % Inh @ 1 μM); 40 to 59% on FLT3; greater than 60% at Flt3(D835Y); greater than 60% at JAK2; greater than 60% on TYRO3 (TYRO3, 1 μM, read-out: Average % Inh @ 1 μM).
